In ChEMBL document CHEMBL1126360, “-Amino acid analogues as mechanism-based inactivators of -aminobutyric acid aminotransferase” (Bioorg Med Chem Lett, 1992) one finds Ki and K inact data, which are given here for five compounds.

The target in assay [1] is 4-aminobutyrate aminotransferase, mitochondrial (Sus scrofa, UniProt P80147). In words: Apparent dissociation constants for inactivation of Gamma-amino-N-butyrate transaminase.
Assay [2] has as its target 4-aminobutyrate aminotransferase, mitochondrial (Sus scrofa) (UniProt P80147). In words: Rate constants for inactivation at infinite concentration for inactivation of Gamma-amino-N-butyrate transaminase.

Chain of 4-aminobutyrate aminotransferase, mitochondrial (Sus scrofa) (P80147 whole entry): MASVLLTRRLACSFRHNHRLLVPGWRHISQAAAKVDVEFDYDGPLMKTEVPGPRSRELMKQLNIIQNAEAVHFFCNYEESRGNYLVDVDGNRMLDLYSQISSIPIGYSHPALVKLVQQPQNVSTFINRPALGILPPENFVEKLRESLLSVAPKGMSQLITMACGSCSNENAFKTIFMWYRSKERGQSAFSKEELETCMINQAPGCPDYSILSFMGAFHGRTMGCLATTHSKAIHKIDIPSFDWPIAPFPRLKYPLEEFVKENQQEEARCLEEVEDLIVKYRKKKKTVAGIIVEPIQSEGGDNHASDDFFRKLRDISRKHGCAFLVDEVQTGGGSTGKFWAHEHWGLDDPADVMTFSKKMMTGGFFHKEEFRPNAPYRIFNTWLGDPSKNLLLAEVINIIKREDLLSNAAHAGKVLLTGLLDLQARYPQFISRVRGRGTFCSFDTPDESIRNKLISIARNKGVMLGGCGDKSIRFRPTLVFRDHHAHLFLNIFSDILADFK
Chain of 4-aminobutyrate aminotransferase, mitochondrial (P80147 whole entry): as above

On to `N[C@@H](COS(=O)(=O)O)C(=O)O`, for which the Ki in assay [1] was 2.4 mM. In assay [2], this compound returned a K inact of 0.0055 min⁻¹.
For `C[C@](N)(CF)C(=O)O` the same measures were 6.8 mM and 0.00059 min⁻¹.
As for `C[C@](N)(CCl)C(=O)O`, the Ki in assay [1] was found to be 6.5 mM. This compound also showed a K inact in assay [2] of 0.00093 min⁻¹.
Take `C[C@](N)(COP(=O)(O)O)C(=O)O`: the Ki in assay [1] was 5.7 mM. The K inact in assay [2] is 0.0014 min⁻¹.
As for `C=C[C@](C)(N)C(=O)O`, the Ki in assay [1] is 12.8 mM. This compound also returned a K inact in assay [2] of 8.5e-05 min⁻¹.
